Measured values: patent US20100086931A1, “METHOD FOR ASSAYING ACTION OF ANTITUMOR AGENT USING DECREASE IN GENE EXPRESSION LEVEL AS INDEX” (Eisai R&D Management Co., Ltd., priority 2007, published 2010)

System: peripheral blood mononuclear cells (PBMC)
Assay: Microarray analysis (Human Exon 1.0 ST Array) of gene expression in PBMC
Assay type: cell-based
Settings: vs untreated group
Excerpt: Since it is not easy to obtain a cancer tissue clinically, the measurement of the marker in hemocytes readily obtainable in peripheral blood would be more useful. It was then examined whether the marker gene obtained in cancer cells could change in peripheral mononuclear cells in a similar manner as observed in the cancer cells. Specifically peripheral blood was taken from three normal individuals (volunteers) and peripheral mononuclear cells were purified and treated with (8E,12E,14E)-7-((4-Cycloheptylpiperazin-1-yl)carbonyl)oxy-3,6,16,21-tetrahydroxy-6,10,12,16,20-pentamethyl-18,19-epoxytricosa-8,12,14-trien-11-olide for six hours, followed by measurement of change in expression of the gene by a microarray (Human Exon 1.0 ST Array: Affymetrix).
Ficoll-Paque PLUS solution (Amersham, 17-1440-02) was slowly added to the blood taken (with heparin added) from healthy individuals to form a layer underneath the blood (15 ml of Ficoll-Paque PLUS solution was added to 25 ml of blood). After the mixture was centrifuged at 1500 rpm for 30 min, the upper part containing platelets was removed and then a layer containing mononuclear cells was transferred to another tube. The cells were suspended in PBS and centrifuged at 1500 rpm for 5 min, followed by removal of the supernatant. After these steps were repeated twice, the cells were again suspended in RPMI1640 (containing 10% FBS, penicillin, and streptomycin) and the number of the cells was then counted.
PBMC was suspended in RPMI1640 medium (containing 10% FBS, penicillin, and streptomycin) to 5×10^6 cells/ml and 1 ml of the suspension was plated per well of a 24-well plate. Immediately, 111 μl of 10 times-concentrated (8E,12E,14E)-7-((4-Cycloheptylpiperazin-1-yl)carbonyl)oxy-3,6,16,21-tetrahydroxy-6,10,12,16,20-pentamethyl-18,19-epoxytricosa-8,12,14-trien-11-olide was added to the well (six wells per each concentration tested). The cells were then cultured in an incubator with 5% carbon dioxide gas at 37° C. Three hours later, the supernatant was collected and centrifuged at 1500 rpm for five minutes. TRI reagent (SIGMA) (1 ml) was added to each well of the plate from which the supernatant was removed to harvest the cells, which was added to the centrifuged pellet to dissolve. RNA was purified in accordance with the protocol of TRI reagent. RNA was further purified using RNeasy (QIAGEN) and, in accordance with the protocol, DNase I was added to the samples during the procedure. Absorbance at 260 nm was measured to quantify an amount of RNA.
Ribosomal RNA was removed from 1 μg of each RNA by using RiboMinus Human/Mouse Transcriptome Isolation Kit (Invitrogen). Single stranded cDNA synthesis, double stranded cDNA synthesis, cRNA synthesis, second single stranded cDNA synthesis, cDNA fragmentation, and cDNA labeling in order were carried out for total RNA from which ribosomal RNA was removed, using GeneChip Whole Transcript Sense Target Labeling and Control Reagents (Affymetrix) to make a cDNA probe. Subsequently, the cDNA probe was used for hybridization with Human Exon 1.0 ST Array (Affymetrix). The array was washed and stained, and luminescence intensity was measured by a scanner.
The expression level of the gene was quantified by using Expression Console Ver. 1.0 (Affymetrix) with Summarization Method and Normalization Method being set to “Median polish as used in RMA” and “None”, respectively.
Genes showing the change in the expression of the gene in both groups with the 10 nM treatment and the 30 nM treatment is, compared to that in the […], less than 25%; the expression level of the gene in the untreated group is more than 100; both P values of t-test for the 10 nM treated group and the untreated group, and for the 30 nM treated group and the untreated group are less than 5% were picked out. (Table 4). […]

CCC(O)C(C)C1OC1CC(C)(O)/C=C/C=C(\C)C1OC(=O)CC(O)CCC(C)(O)C(OC(=O)N2CCN(C3CCCCCC3)CC2)/C=C/C1C (centres unmarked) [E7107, (8E,12E,14E)-7-((4-Cycloheptylpiperazin-1-yl)carbonyl)oxy-3,6,16,21-tetrahydroxy-6,10,12,16,20-pentamethyl-18,19-epoxytricosa-8,12,14-trien-11-olide]
0.07: Fold Change in expression level of TNFSF15 (Transcript Cluster 3222128) (30 nM)
0.19: Fold Change in expression level of CD274 (Transcript Cluster 3161082) (10 nM) | Fold Change in expression level of GK (Transcript Cluster 3972929) (10 nM) | Fold Change in expression level of TRAF1 (Transcript Cluster 3223738) (10 nM) | Fold Change in expression level of C13orf31 (Transcript Cluster 3487600) (30 nM) | Fold Change in expression level of TNFAIP6 (Transcript Cluster 2510464) (30 nM)
0.21: Fold Change in expression level of ARFGAP3 (Transcript Cluster 3962587) (10 nM) | Fold Change in expression level of C13orf31 (Transcript Cluster 3487600) (10 nM) | Fold Change in expression level of LAIR1 (Transcript Cluster 3870824) (10 nM) | Fold Change in expression level of SLC37A2 (Transcript Cluster 3354443) (10 nM) | Fold Change in expression level of SLC41A2 (Transcript Cluster 3469180) (10 nM) | Fold Change in expression level of GK (Transcript Cluster 3972929) (30 nM) | Fold Change in expression level of PIK3R5 (Transcript Cluster 3744680) (30 nM) | Fold Change in expression level of TRAPPC4 (Transcript Cluster 3351775) (30 nM)
0.06: Fold Change in expression level of SLC7A11 (Transcript Cluster 2786322) (30 nM)
0.23: Fold Change in expression level of PIK3R5 (Transcript Cluster 3744680) (10 nM) | Fold Change in expression level of SEMA6B (Transcript Cluster 3846860) (10 nM) | Fold Change in expression level of TRAPPC4 (Transcript Cluster 3351775) (10 nM) | Fold Change in expression level of SLC37A2 (Transcript Cluster 3354443) (30 nM)
0.13: Fold Change in expression level of KMO (Transcript Cluster 2388085) (10 nM) | Fold Change in expression level of SLC7A11 (Transcript Cluster 2786322) (10 nM) | Fold Change in expression level of KMO (Transcript Cluster 2388085) (30 nM) | Fold Change in expression level of NRIP3 (Transcript Cluster 3362159) (30 nM)
0.14: Fold Change in expression level of ARFGAP3 (Transcript Cluster 3962587) (30 nM) | Fold Change in expression level of DOCK4 (Transcript Cluster 3068097) (30 nM) | Fold Change in expression level of LAIR1 (Transcript Cluster 3870824) (30 nM) | Fold Change in expression level of SLAMF7 (Transcript Cluster 2363202) (30 nM) | Fold Change in expression level of SLC43A3 (Transcript Cluster 3373845) (30 nM)
0.20: Fold Change in expression level of STEAP4 (Transcript Cluster 3060332) (10 nM) | Fold Change in expression level of ENG (Transcript Cluster 3226097) (30 nM)
0.17: Fold Change in expression level of SLC43A3 (Transcript Cluster 3373845) (10 nM) | Fold Change in expression level of RCN1 (Transcript Cluster 3325503) (30 nM) | Fold Change in expression level of SLC41A2 (Transcript Cluster 3469180) (30 nM) | Fold Change in expression level of TRAF1 (Transcript Cluster 3223738) (30 nM)
0.18: Fold Change in expression level of TNFAIP6 (Transcript Cluster 2510464) (10 nM) | Fold Change in expression level of CD274 (Transcript Cluster 3161082) (30 nM) | Fold Change in expression level of SLC43A2 (Transcript Cluster 3740367) (30 nM)
0.22: Fold Change in expression level of P2RX4 (Transcript Cluster 3434760) (10 nM) | Fold Change in expression level of SLC43A2 (Transcript Cluster 3740367) (10 nM) | Fold Change in expression level of P2RX4 (Transcript Cluster 3434760) (30 nM) | Fold Change in expression level of SEMA6B (Transcript Cluster 3846860) (30 nM) | Fold Change in expression level of STEAP4 (Transcript Cluster 3060332) (30 nM)
0.24: Fold Change in expression level of ENG (Transcript Cluster 3226097) (10 nM)
0.10: Fold Change in expression level of KYNU (Transcript Cluster 2508520) (10 nM) | Fold Change in expression level of TNFSF15 (Transcript Cluster 3222128) (10 nM) | Fold Change in expression level of KYNU (Transcript Cluster 2508520) (30 nM)
0.12: Fold Change in expression level of PLA2G7 (Transcript Cluster 2955827) (10 nM)
0.09: Fold Change in expression level of CTSL1 (Transcript Cluster 3178147) (10 nM) | Fold Change in expression level of OLR1 (Transcript Cluster 3444043) (10 nM) | Fold Change in expression level of RCN1 (Transcript Cluster 3325503) (10 nM) | Fold Change in expression level of CTSL1 (Transcript Cluster 3178147) (30 nM)
0.15: Fold Change in expression level of NRIP3 (Transcript Cluster 3362159) (10 nM) | Fold Change in expression level of SLAMF7 (Transcript Cluster 2363202) (10 nM) | Fold Change in expression level of PLA2G7 (Transcript Cluster 2955827) (30 nM)
0.04: Fold Change in expression level of OLR1 (Transcript Cluster 3444043) (30 nM)
0.16: Fold Change in expression level of DOCK4 (Transcript Cluster 3068097) (10 nM)
